Read-outs that look alike come from different tables or passages of the source.
Tested on: Myc
Assay: Myc inhibition assay: Myc expression per cell by anti-Myc immunofluorescence, high-content imaging
Assay type: cell-based, human (patient-derived medulloblastoma xenograft cells)
Settings: medulloblastoma PDX cells, 4 h
Procedure, shortened: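 IC50 comes from high-content imaging of per-cell Myc immunostaining (DAPI-labelled nuclei) after 4 h compound exposure. Cells were freshly dissociated medulloblastoma PDX tumours, never passaged in vitro, grown in NSG mouse cerebellum, plated serum-free and recovered overnight before treatment.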

[1] = Table 1, read-out: IC50 (Myc inhibition)
[2] = Table 2, read-out: MYC Inhibition IC50

Compound	IC50 [1] [µM]	IC50 [2] [µM]
COc1ncc(-c2ccnc(Nc3cccc(F)c3)n2)s1 [Compound 180, N-(3-fluorophenyl)-4-(2-methoxythiazol-5-yl)pyrimidin-2-amine]	1 to 10	1 to 10
Oc1ncc(-c2ccnc(Nc3cccc(F)c3)n2)s1 [Compound 181, 5-(2-((3-fluorophenyl)amino)pyrimidin-4-yl)thiazol-2-ol]	0.2 to 1	0.2 to 1
Oc1ccnc(-c2ccnc(Nc3cccc(F)c3)n2)c1 [Compound 182, 2-(2-((3-fluorophenyl)amino)pyrimidin-4-yl)pyridin-4-ol]	1 to 10	1 to 10
Oc1ccnc(-c2ccnc(Nc3ccccc3)n2)c1 [Compound 183, 2-(2-(phenylamino)pyrimidin-4-yl)pyridin-4-ol]	1 to 10	1 to 10
Oc1cc(-c2ccnc(Nc3ncccn3)n2)ccn1 [Compound 184, 4-(2-(pyrimidin-2-ylamino)pyrimidin-4-yl)pyridin-2-ol]	10 to 100	10 to 100
COC(=O)c1cccc(Nc2nccc(-c3ccnc(O)c3)n2)c1 [Compound 185, methyl 3-((4-(2-hydroxypyridin-4-yl)pyrimidin-2-yl)amino)benzoate]	1 to 10	1 to 10
Oc1cc(-c2ccnc(Nc3ccccn3)n2)ccn1 [Compound 186, 4-(2-(pyridin-2-ylamino)pyrimidin-4-yl)pyridin-2-ol]	10 to 100	10 to 100
COc1cc(-c2ccnc(Nc3ccccn3)n2)ccn1 [Compound 187, 4-(2-methoxypyridin-4-yl)-N-(pyridin-2-yl)pyrimidin-2-amine]	10 to 100	10 to 100
Oc1cc(-c2ccnc(Nc3cccnc3)n2)ccn1 [Compound 188, 4-(2-(pyridin-3-ylamino)pyrimidin-4-yl)pyridin-2-ol]	1 to 10	1 to 10
COc1cc(-c2ccnc(Nc3cccnc3)n2)ccn1 [Compound 189, 4-(2-methoxypyridin-4-yl)-N-(pyridin-3-yl)pyrimidin-2-amine]	1 to 10	1 to 10
Oc1cc(-c2ccnc(Nc3ccncc3)n2)ccn1 [Compound 190, 4-(2-(pyridin-4-ylamino)pyrimidin-4-yl)pyridin-2-ol]	1 to 10	1 to 10
COc1cccc(Nc2nccc(-c3ccnc(O)c3)n2)c1 [Compound 191, 4-(2-((3-methoxyphenyl)amino)pyrimidin-4-yl)pyridin-2-ol]	1 to 10	1 to 10
COc1cccc(Nc2nccc(-c3ccnc(OC)c3)n2)c1 [Compound 192, N-(3-methoxyphenyl)-4-(2-methoxypyridin-4-yl)pyrimidin-2-amine]	1 to 10	1 to 10
COc1ccnc(-c2ccnc(Nc3cccc(F)c3)n2)c1 [Compound 193, N-(3-fluorophenyl)-4-(4-methoxypyridin-2-yl)pyrimidin-2-amine]	10 to 100	10 to 100
Oc1ccc(-c2ccnc(Nc3cccc(F)c3)n2)cc1 [Compound 194, 4-(2-((3-fluorophenyl)amino)pyrimidin-4-yl)phenol]	1 to 10	1 to 10
COc1cc(-c2ccnc(Nc3ncccn3)n2)ccn1 [Compound 195, 4-(2-methoxypyridin-4-yl)-N-(pyrimidin-2-yl)pyrimidin-2-amine]	10 to 100	10 to 100
O=C(O)c1cccc(Nc2nccc(-c3ccnc(O)c3)n2)c1 [Compound 196, 3-((4-(2-hydroxypyridin-4-yl)pyrimidin-2-yl)amino)benzoic acid]	10 to 100	10 to 100
COc1cc(-c2ccnc(Nc3ccncc3)n2)ccn1 [Compound 197, 4-(2-methoxypyridin-4-yl)-N-(pyridin-4-yl)pyrimidin-2-amine]	1 to 10	1 to 10
COc1cc(-c2ccnc(Nc3cccc(C(N)=O)c3)n2)ccn1 [Compound 198, 3-((4-(2-methoxypyridin-4-yl)pyrimidin-2-yl)amino)benzamide]	1 to 10	1 to 10
Fc1cccc(Nc2nccc(-c3ccc4[nH]cnc4c3)n2)c1 [Compound 199, 4-(1H-benzo[d]imidazol-5-yl)-N-(3-fluorophenyl)pyrimidin-2-amine]	< 0.2	< 0.2
Oc1cncc(-c2ccnc(Nc3cccc(F)c3)n2)c1 [Compound 200, 5-(2-((3-fluorophenyl)amino)pyrimidin-4-yl)pyridin-3-ol]	1 to 10	1 to 10

Second part, the molecule after the results:

IC50 [1] [µM]	IC50 [2] [µM]	Compound
1 to 10	1 to 10	Oc1cncc(-c2ccnc(Nc3cccc(C(F)(F)F)c3)n2)c1 [Compound 201, 5-(2-((3-(trifluoromethyl)phenyl)amino)pyrimidin-4-yl)pyridin-3-ol]
10 to 100	10 to 100	Fc1cccc(Nc2nccc(-c3ccc4[nH]ccc4c3)n2)c1 [Compound 202, N-(3-fluorophenyl)-4-(1H-indol-5-yl)pyrimidin-2-amine]
0.2 to 1	0.2 to 1	COc1cncc(-c2ccnc(Nc3cccc(F)c3)n2)c1 [Compound 203, N-(3-fluorophenyl)-4-(5-methoxypyridin-3-yl)pyrimidin-2-amine]
0.2 to 1	0.2 to 1	COc1cncc(-c2ccnc(Nc3cccc(C(F)(F)F)c3)n2)c1 [Compound 204, 4-(5-methoxypyridin-3-yl)-N-(3-(trifluoromethyl)phenyl)pyrimidin-2-amine]
1 to 10	1 to 10	Oc1cc(-c2ccnc(Nc3cccc(F)c3F)n2)ccn1 [Compound 205, 4-(2-((2,3-difluorophenyl)amino)pyrimidin-4-yl)pyridin-2-ol]
10 to 100	10 to 100	COc1cc(-c2ccnc(Nc3cccc(F)c3F)n2)ccn1 [Compound 206, N-(2,3-difluorophenyl)-4-(2-methoxypyridin-4-yl)pyrimidin-2-amine]
10 to 100	10 to 100	Oc1cc(-c2ccnc(Nc3ccccc3F)n2)ccn1 [Compound 207, 4-(2-((2-fluorophenyl)amino)pyrimidin-4-yl)pyridin-2-ol]
10 to 100	10 to 100	COc1cc(-c2ccnc(Nc3ccccc3F)n2)ccn1 [Compound 208, N-(2-fluorophenyl)-4-(2-methoxypyridin-4-yl)pyrimidin-2-amine]
1 to 10	1 to 10	Oc1cc(-c2ccnc(Nc3ccc(F)c(F)c3)n2)ccn1 [Compound 209, 4-(2-((3,4-difluorophenyl)amino)pyrimidin-4-yl)pyridin-2-ol]
1 to 10	1 to 10	COc1cc(-c2ccnc(Nc3ccc(F)c(F)c3)n2)ccn1 [Compound 210, N-(3,4-difluorophenyl)-4-(2-methoxypyridin-4-yl)pyrimidin-2-amine]
0.2 to 1	0.2 to 1	Oc1ccc(-c2ccnc(Nc3cccc(C(F)(F)F)c3)n2)cn1 [Compound 211, 5-(2-((3-(trifluoromethyl)phenyl)amino)pyrimidin-4-yl)pyridin-2-ol]
1 to 10	1 to 10	COc1ccc(-c2ccnc(Nc3cccc(C(F)(F)F)c3)n2)cn1 [Compound 212, 4-(6-methoxypyridin-3-yl)-N-(3-(trifluoromethyl)phenyl)pyrimidin-2-amine]
1 to 10	1 to 10	Oc1ccc(-c2ccnc(Nc3cccc(F)c3)n2)cn1 [Compound 213, 5-(2-((3-fluorophenyl)amino)pyrimidin-4-yl)pyridin-2-ol]
10 to 100	10 to 100	COc1ccc(-c2ccnc(Nc3cccc(F)c3)n2)cn1 [Compound 214, N-(3-fluorophenyl)-4-(6-methoxypyridin-3-yl)pyrimidin-2-amine]
10 to 100	10 to 100	CN(c1ccccc1)c1ncnc(-c2ccnc(O)c2)n1 [Compound 215, 4-(4-(methyl(phenyl)amino)-1,3,5-triazin-2-yl)pyridin-2-ol]
10 to 100	10 to 100	COc1cc(-c2ncnc(N(C)c3ccccc3)n2)ccn1 [Compound 216, 4-(2-methoxypyridin-4-yl)-N-methyl-N-phenyl-1,3,5-triazin-2-amine]
10 to 100	10 to 100	COc1ccnc(-c2ccnc(Nc3ccccc3)n2)c1 [Compound 217, 4-(4-methoxypyridin-2-yl)-N-phenylpyrimidin-2-amine]
10 to 100	10 to 100	CN(c1ccccc1)c1nccc(-c2cncc(O)c2)n1 [Compound 218, 5-(2-(methyl(phenyl)amino)pyrimidin-4-yl)pyridin-3-ol]
1 to 10	1 to 10	Oc1cncc(-c2ccnc(Nc3ccccc3)n2)c1 [Compound 219, 5-(2-(phenylamino)pyrimidin-4-yl)pyridin-3-ol]
10 to 100	10 to 100	CN(c1cccc(C(F)(F)F)c1)c1nccc(-c2ccnc(O)c2)n1 [Compound 220, 4-(2-(methyl (3-(trifluoromethyl)phenyl)amino)pyrimidin-4-yl)pyridin-2-ol]
10 to 100	10 to 100	CN(c1ccccc1)c1nccc(-c2ccnc(O)c2)n1 [Compound 221, 4-(2-(methyl(phenyl)amino)pyrimidin-4-yl)pyridin-2-ol]
10 to 100	10 to 100	CN(c1ccccc1)c1nccc(-c2ccc(O)nc2)n1 [Compound 222, 5-(2-(methyl(phenyl)amino)pyrimidin-4-yl)pyridin-2-ol]
10 to 100	10 to 100	COc1ccc(-c2ccnc(N(C)c3ccccc3)n2)cn1 [Compound 223, 4-(6-methoxypyridin-3-yl)-N-methyl-N-phenylpyrimidin-2-amine]
10 to 100	10 to 100	COc1cncc(-c2ccnc(N(C)c3ccccc3)n2)c1 [Compound 224, 4-(5-methoxypyridin-3-yl)-N-methyl-N-phenylpyrimidin-2-amine]
10 to 100	10 to 100	CN(c1ccccc1)c1nccc(-c2cccc(O)n2)n1 [Compound 225, 6-(2-(methyl(phenyl)amino)pyrimidin-4-yl)pyridin-2-ol]

Reference: US20260356817A1, “AMINOPYRIMIDINE AND AMINOTRIAZINE DERIVATIVES AS MYC PROTEIN MODULATORS” (Sanford Burnham Prebys Medical Discovery Institute, priority 2022, published 2026)
